Experimental findings from patent US9359341B2, “Aldehyde derivative of substitute oxazolidinones” (WANBURY LTD., priority 2012, dated 2016) are described below.

Series [1] in a line: In vitro liver microsomal stability assay (rat). Format: in vitro ADME. The conditions noted are these: rat liver microsomes. The procedure: Liver microsomal stability assays are conducted at 1 mg per mL liver microsome protein with an NADPH in phosphate buffer (100 mM, pH 7.4). Test compounds (compound of formula B of the invention) are prepared as solutions in 20% methanol-water and added to the assay mixture (final assay concentration 1 μM) and incubated at 37° C. Aliquots (100.μ·L) are taken out at times 0, 15, and 30 minutes, and diluted with ice cold acetonitrile containing IS (200.mu·L) to stop the reactions. Samples are centrifuged at 10,000 RPM for 5 minutes to precipitate proteins. Supernatants are transferred to micro centrifuge tubes and stored at −20° C. for analysis of LC/MS/MS. The percent parent remaining of the test substance is calculated as Ratio of peak area at each time point to peak area ratio at zero min, multiplied by 100. The compound formula (B) is converted to Rivaroxaban in microsomal assay.

Series [2] in a line: In vitro stability in mouse plasma. Format: in vitro ADME. The conditions noted are these: conversion to rivaroxaban seen from zero min. The procedure:
The final concentration of the test compound in the assay is 5 micromolar. […] C. The 100 microliters of aliquot at time point was removed and diluted with ice cold acetonitrile containing IS (200.mu·L) to stop the reactions. Samples are centrifuged at 10,000 RPM for 5 minutes to precipitate proteins. Supernatants are transferred to micro centrifuge tubes and stored at −20° C. for analysis of LC/MS/MS. The percent parent remaining of the test substance is calculated as ratio of peak area at each time point to peak area ratio at zero min, multiplied by 100.
API 4000, ESI Agilent 1100 column: Gemini Nx 100 mm×4.6 mm 5.1; column temperature: 30° C.; eluent A: 0.1% formic acid in water, eluent B: acetonitrile; gradient: 0-2.5 min 95% A, 5% B; 2.5-2.6 min 5% A, 95% B; 2.6-4.2 min 95% A, 5% B; flow rate: 0.8 ml/min; ESI. Q1:464.098, Q3:144.255

Series [3] is described as follows: Intravenous and oral excretion profile in Wistar rats. Format: in vivo. The protocol:
On the day before administration of the substance, a catheter for obtaining blood is implanted in the jugular vein of the experimental animals (male Wistar rats, body weight 200-250 g) under Isoflurane. anesthesia.
Urine and faeces are taken collected from metabolic cages over the course of 144 h after administration of the substance. The administration volume is 10 ml/kg for oral and 1 ml/kg for IV in male Wistar rats. Intravenous administration is via a formulation of 2% N—N Dimethyl acetamide/ethanol 10%/PEG400 (30%)/water for IV injection (58%) and via Tween80/PEG400/sterile water in the case of oral administration. Urine and faeces collection is 0-4, 4-8, 8-24, 24-48, 48-72, 72-96, 96-120, 120-144 in the case of IV and for oral administration.
Urine and faeces was processed and IS containing Acetonitrile is added to a defined urine/faeces and precipitated. After centrifugation, compound formula (B) and, where appropriate, known cleavage products of the compound formula (B) in the supernatant are determined quantitatively using a suitable LC/MS-MS method.
The measured urine and faeces concentrations are used to calculate parameters of the test substance and of the active ingredient compound (A) liberated there from, such as AUC and Cmax.
Acetonitrile containing IS is added to the study samples, calibration samples and QCs, and the protein is precipitated using acetonitrile. Vortexed and centrifuged and the supernatant is injected by LC-MS/MS (API 4000, AB Sciex). Chromatographic separation is carried out on an Shimadzu UFLC. The injection volume is 10 μl. The separation column used is a Phenomenex Gemini NX 4.6×5μ. 100 mm, adjusted to a temperature of 30° C. A binary mobile phase gradient at 800.mu·l/min is used (A: 0.1% formic acid in water, B: acetonitrile: API 4000, ESI Agilent 1100 column: Gemini Nx 100 mm×4.6 mm 5.μ; column temperature: 30° C.; eluent A: 0.1% formic acid in water, eluent B: acetonitrile; gradient: 0-2.5 min 95% A, 5% B; 2.5-2.6 min 5% A, 95% B; 2.6-4.2 min 95% A, 5% B; flow rate: 0.8 ml/min; ESI. Q1:464.098, Q3:144.255 The temperature of the Turbo V ion source is 500° C. The following MS instrument parameters are used: curtain gas 20 units, ion spray voltage 5 kV, gas 1 50 units gas 2 50 units, CAD gas 6 units. The substances are quantified by peak heights or areas using extracted ion chromatograms of specific MRM experiments.

On to `O=CN(C[C@H]1CN(c2ccc(N3CCOCC3=O)cc2)C(=O)O1)C(=O)c1ccc(Cl)s1` [Compound formula B, 5-chloro-N-formyl-N-({(5S)-2-oxo-3-[4-(3-oxomorpholin-4-yl)phenyl]-1,3-oxazolidin-5-yl}methyl)thiophene-2-carboxamide], for which, in series [1], the “Observation (metabolism; for Test Product: of the formed rivaroxaban)” value was “shown metabolism”. The “amount of test product detected” value in series [1] (metabolised to rivaroxaban from zero min) is recorded as “min. Neglible”. The “Conversion: amount of test product detected” value in series [2] was “min. Neglible”. Besides, the “Mean (ng/G) Faeces” value in series [3] (IV 1 mg/Kg, rivaroxaban in faeces, 144 h) is “BLQ”. Further, in series [3] (IV 1 mg/Kg, rivaroxaban in urine, 120 h), the “Mean (ng) Urine” value was “BLQ”. Moreover, in series [3] (Wistar rats), the “amount of rivaroxaban present in faeces as compared to rivaroxaban alone” value is reported as “lesser amount of rivaroxaban present in faeces”. In addition, in series [3] (after i.v. administration, at the first measurement point), the “detectability of test substance in urine and faeces” value was “no longer detectable in urine and faeces”.
